According to patent US20260053812A1, “METHODS OF TREATING HYPERTENSION WITH A COMBINATION OF AN ALDOSTERONE SYNTHASE INHIBITOR AND A DIURETIC” (Mineralys Therapeutics, Inc., priority 2022, published 2026):
Marks after values point to notes of the source that are not given here.

Test: Serum potassium
Format: in vivo, human

**Q.** Which “Increase in potassium levels relative to baseline” value (25 mg BID Part 1, Week 8) does the source give for `CC(=O)N[C@H]1CC[C@H](NC(=O)CN2CCN(c3nncc(-c4ccc(C)cc4)n3)CC2)CC1` [Compound A HBr] here?
**A.** 0.341 mmol/L

**Q.** And the “Serum K+ Mean Change from Baseline to Wk 8” value (50 mg QD (n = 28))?
**A.** +0.25 mmol/L

**Q.** What about the “Serum K+ Mean Change from Baseline to Wk 8” value (100 mg QD (n = 61)) of the same molecule?
**A.** +0.29 mmol/L

**Q.** And the “Increase in potassium levels relative to baseline” value (100 mg QD Part 2, Week 8)?
**A.** 0.208 mmol/L

**Q.** And the “Number of individuals with verified or multiple increased serum K+ 5.2-5.5 mMol/L during treatment” value (100 mg QD, Part 1)?
**A.** 5

**Q.** What about the “Number of individuals with verified or multiple increased serum K+ 5.6-6.0 mMol/L during treatment” value (100 mg QD, Part 1) of the same molecule?
**A.** 3

**Q.** And the “Number of individuals with verified or multiple increased serum K+ 6.1-6.5 mMol/L during treatment” value (100 mg QD, Part 1)?
**A.** 0

**Q.** What about the “Percent of individuals with increased serum K+ 5.2-5.5 mMol/L” value (100 mg QD, Part 1) of the same molecule?
**A.** (18.5%)

**Q.** What about the “Percent of individuals with increased serum K+ 5.6-6.0 mMol/L” value (100 mg QD, Part 1) of the same molecule?
**A.** (10.7%)

**Q.** And the “Number of individuals with increased serum K+ >6.5 mMol/L during treatment” value (100 mg QD, Part 1, isolated incident not verified by repeat measurement)?
**A.** 1*

**Q.** And the “Number of individuals with verified or multiple increased serum K+ 5.2-5.5 mMol/L during treatment” value (100 mg QD, Part 2)?
**A.** 1

**Q.** And the “Number of individuals with verified or multiple increased serum K+ 5.6-6.0 mMol/L during treatment” value (100 mg QD, Part 2)?
**A.** 0

**Q.** What about the “Number of individuals with verified or multiple increased serum K+ 6.1-6.5 mMol/L during treatment” value (100 mg QD, Part 2) of the same molecule?
**A.** 0

**Q.** And the “Number of individuals with verified or multiple increased serum K+ >6.5 mMol/L during treatment” value (100 mg QD, Part 2)?
**A.** 0

**Q.** What about the “Percent of individuals with increased serum K+ 5.2-5.5 mMol/L” value (100 mg QD, Part 2) of the same molecule?
**A.** (4%)

**Q.** What about the “Number of individuals with verified or multiple increased serum K+ 5.2-5.5 mMol/L during treatment” value (100 mg QD, Pooled) of the same molecule?
**A.** 6

**Q.** And the “Number of individuals with verified or multiple increased serum K+ 5.6-6.0 mMol/L during treatment” value (100 mg QD, Pooled)?
**A.** 3

**Q.** What about the “Number of individuals with verified or multiple increased serum K+ 6.1-6.5 mMol/L during treatment” value (100 mg QD, Pooled) of the same molecule?
**A.** 0

**Q.** And the “Number of individuals with verified or multiple increased serum K+ >6.5 mMol/L during treatment” value (100 mg QD, Pooled)?
**A.** 0

**Q.** And the “Percent of individuals with increased serum K+ 5.2-5.5 mMol/L” value (100 mg QD, Pooled)?
**A.** (10.3%)

**Q.** And the “Percent of individuals with increased serum K+ 5.6-6.0 mMol/L” value (100 mg QD, Pooled)?
**A.** (5.2%)

**Q.** What about the “Change in group mean serum potassium (K+), Mean” value (shortened to “Change … (K+), Mean”) (Part 1, N 26*) of the same molecule?
**A.** +0.50 mMol/L

**Q.** And the “Change in group mean serum potassium (K+)” value (Part 1, N 26* (dose not given in Table 5))?
**A.** +0.50 mMol/L

**Q.** And the “Change … (K+), Mean” value (Part 2, N 31)?
**A.** +0.23 mMol/L

**Q.** And the “Change in group mean serum potassium (K+)” value (Part 2, N 31 (dose not given in Table 5))?
**A.** +0.23 mMol/L

**Q.** And the “Change … (K+), Mean” value (Pooled, N 57)?
**A.** +0.35 mMol/L

**Q.** What about the “Change in group mean serum potassium (K+)” value (Pooled, N 57 (dose not given in Table 5)) of the same molecule?
**A.** +0.35 mMol/L

**Q.** And the Serum potassium levels (active treatment cohorts compared with placebo, Parts 1 and 2)?
**A.** increased

**Q.** And the “Episodes of severe hyperkalemia” value (pooled (Part 1 and Part 2) 100 mg QD safety set (n=60))?
**A.** no episodes of severe hyperkalemia

**Q.** What about the “Subjects with transient elevated serum potassium greater than 6.0 mmol/L” value (whole study, none an SAE, all resolved after discontinuation or dose adjustment, listed as lorundrostat) of the same molecule?
**A.** seven
